{
  "source": "patent US20040077617A1",
  "about": "“Fused cycloalkyl amides and acids and their therapeutic applications” (priority 2002, published 2004)",
  "key": {"CD-1 mice [1]": {"test_system": "CD-1 mice", "experiment": "Subcutaneous pentylenetetrazole (PTZ) Seizure Procedure", "type": "in vivo", "conditions": "Mus musculus; subcutaneous PTZ 85 mg/kg; male CD-1 mice; p.o. 30 minutes prior to PTZ; observed 15 minutes; linear regression; read-out: ED50 (dose at which 50% of the mice were protected from tonic seizures)", "method": "(§1) Adult, male, CD-1 mice (22-25 grams) were obtained from Charles River Laboratories (Portage, Mich.) and housed at Abbott Laboratories (Abbott Park) under standard lighting conditions of 12 hours on/12 hours off, with lights on at 6 a.m. Food and water were provided ad libitum and mice weighed 25-35 grams at the time of testing.\n(§2) Compounds were prepared for oral administration by suspending them in a vehicle of 100 μL Tween® 80 per mL hydroxypropyl methylcellulose (2 mg/mL, Abbott Laboratories). Compound solutions were administered at a volume of 10 mL/kg, p.o.\nSubcutaneous pentylenetetrazole (PTZ) Seizure Procedure:\nThe method used was similar to that of E. A. Swinyard, General principles: Experimental selection, quantification and evaluation of anti-convulsants, Anti-epileptic Drugs, Third Edition, R. Levey, et al., Editors. 1989, Raven Press Ltd: New York. During the experiment the mice were housed individually in clear polycarbonate cages for observation. […] Seizures were induced by the subcutaneous injection of pentylenetetrazole (PTZ, 85 mg/kg) just below the nape of the neck. […] A total of 20 mice were used in each group. The ED50for the compounds were calculated using linear regression and represent the dose at which 50% of the mice were protected from tonic seizures."}, "CD-1 mice [2]": {"test_system": "CD-1 mice", "experiment": "Maximal Electroshock Procedure (protection from tonic seizures)", "type": "in vivo", "conditions": "Mus musculus, po; maximal electroshock (50 mA, 0.4 second, corneal electrodes); male CD-1 mice; p.o. 30 minutes prior to stimulation; PROBIT analysis; read-out: ED50 (dose at which 50% of the mice were protected from tonic seizures)", "method": "as §1, §2\nMaximal Electroshock Procedure:\nThe method used was similar to that of E.A. Swinyard, General principles: Experimental selection, quantification and evaluation of anti-convulsants, Anti-epileptic Drugs, Third Edition, R. Levey, et al., Editors. 1989, Raven Press Ltd: New York. Mice were pretreated orally with compounds of the present invention 30 minutes prior to electrical stimulation. Electrical stimulation consisted of pulsed electrical current (50 mA, 0.4 second duration, pulse width 0.5 msec, 60 pulses/sec) applied via corneal electrodes to induce seizure. The stimulation was delivered with an ECT Unit (Ugo Basile #7801). […] The percent protection from tonic seizures was calculated by dividing the number of protected mice by the total number in the group. […]"}},
  "data": [
    {"smiles": "CCCC(CCC)C(=O)O", "note": "[Valproate]", "values": [
      {"measurement": "ED50", "setting": "CD-1 mice [1]", "result": 1800, "unit": "µmol/kg"},
      {"measurement": "ED50", "setting": "CD-1 mice [2]", "result": 1200, "unit": "µmol/kg"}
    ]},
    {"smiles": "CC1(C)[C@@H]2CC3[C@H](C(=O)NCC(N)=O)[C@@]3(C)C[C@@H]21", "note": "(stereo partly drawn) [Example 4, (1S,3S,4S,7R)-N-(2-amino-2-oxoethyl)-3,8,8-trimethyltricyclo[5.1.0.0^3,5]octane-4-carboxamide]", "values": [
      {"measurement": "melting point", "result": "169.2 to 169.7", "unit": "°C"}
    ]},
    {"smiles": "CC1(C)[C@@H]2CC3[C@H](C(N)=O)[C@@]3(C)C[C@@H]21", "note": "(stereo partly drawn) [Example 3, (1S,3S,4S,7R)-3,8,8-trimethyltricyclo[5.1.0.0^3,5]octane-4-carboxamide]", "values": [
      {"measurement": "melting point", "result": "121.5 to 122.5", "unit": "°C"}
    ]},
    {"smiles": "CC1(C)[C@@H]2CC3[C@H](C(=O)O)[C@@]3(C)C[C@@H]21", "note": "(stereo partly drawn) (hydrate or solvate) [Example 1, (1S,3S,4S,7R)-3,8,8-trimethyltricyclo[5.1.0.0^3,5]octane-4-carboxylic acid]", "values": [
      {"measurement": "melting point", "result": 86, "unit": "°C"}
    ]}
  ]
}
